Results as given in patent US20240415920A1, “PEPTIDE HAVING ACTIVITY OF PREVENTING HAIR LOSS OR PROMOTING HAIR GROWTH, AND USE THEREOF” (CAREGEN CO., LTD., priority 2021, published 2024).

Assays:
Assay type in all cases: cell-based, human
[1] = tested on: HHFDPC; experiment: Proliferation of dermal papilla cells (MTT, absorbance at 540 nm); conditions: 72 hours, FIG. 1
Method: While culturing human hair follicle dermal dermal papilla cells (HHFDPC), the absorbance was measured after treatment with the peptide of the present invention to confirm whether there was an effect of promoting the proliferation of the HHFDPC dermal papilla cells.
Specifically, HHFDPC (Sciencell, USA) was seeded at 4λ10^3 cells/well in a 96-well culture plate, cultured in MSC complete medium stem (mesenchymal cell complete media, Sciencell, USA) for 24 hours, and then the medium was replaced with serum free MSC complete medium and cultured for another 24 hours. Then, the HHFDPC was treated with the peptide from Preparation Example consisting of amino acid sequence of SEQ ID NO: 1 at concentrations of 10 nM, 100 nM, and 1 μM, respectively, and cultured at 37° C. for 72 hours. As a positive control, minoxidil was treated at a concentration of 1 μM, and as a negative control, HHFDPC without any treatment was used. Then, 10 μl of 5 mg/mL MTT solution was added and cultured in a 37° C. CO2 incubator for 4 hours to stain the cells. After removing the medium, the cells were treated with 100 μl of DMSO and shaken for 10 minutes, and the number of HHFDPC cells was confirmed by measuring absorbance at a wavelength of 540 nm using a spectrophotometer.

[2] = tested on: p-AKT; experiment: Western blotting of phosphorylated AKT in HHFDPC; conditions: peptide 10 nM, 100 nM, 1 μM, 24 hours, FIG. 2
Text: (§1) In the HHFDPC treated with the peptide of the present invention, changes in related factors that affect cell proliferation or differentiation were confirmed to determine whether the peptide of the present invention could promote proliferation and differentiation of HHFDPC by increasing them.
(§2) First, phosphorylated forms of AKT and ERK, which act as signaling molecules related to the proliferation of HHFDPC, were confirmed through Western blotting. Specifically, HHFDPC as in [Experiment Example 1-1] above was seeded at 4λ10^5 cells/well in a 6-well culture plate, cultured in MSC complete medium (mesenchymal stem cell complete media) for 24 hours, and then the medium was replaced with serum free MSC complete medium and cultured for another 24 hours. Then, the HHFDPC was treated with the peptide of SEQ ID NO: 1 prepared in the Preparation Example at concentrations of 10 nM, 100 nM, and 1 μM, respectively, and cultured at 37° C. for 24 hours. As a positive control, minoxidil was treated at a concentration of 1 μM, and as a negative control, HHFDPC without any treatment was used. Then, Western blotting was performed to detect phosphorylated AKT and phosphorylated ERK. […] After washing again with 0.1% PBS-T (0.1% Tween-20 in PBS) three times for 15 minutes each, p-AKT and p-ERK were detected by treatment with ECL solution (GE Healthcare, USA).

[3] = tested on: p-ERK; experiment: Western blotting of phosphorylated ERK in HHFDPC; conditions: peptide 10 nM, 100 nM, 1 μM, 24 hours, FIG. 2
Text: as §1, §2

[4] = tested on: β-catenin; experiment: Western blotting of β-catenin moved into the nucleus of HHFDPC; conditions: peptide 10 nM, 100 nM, 1 μM, 24 hours, FIG. 3
Method: In addition, in addition to p-AKT and p-ERK, in order to confirm the activation of β-catenin, which is known to affect cell proliferation and differentiation, whether β-catenin moved into the nucleus was confirmed through Western blotting. Specifically, the HHFDPC as in [Experiment Example 1-1] was seeded in a 6-well culture plate at an amount of 4λ10^5 cells/well, cultured in MSC complete medium (mesenchymal stem cell complete media) for 24 hours. Next, the medium was replaced with serum free MSC complete medium and cultured again for 24 hours. Then, the HHFDPC was treated with the peptide of SEQ ID NO: 1 prepared in the Preparation Example at concentrations of 10 nM, 100 nM, and 1 μM, respectively, and cultured at 37° C. for 24 hours. As a positive control, minoxidil was treated at a concentration of 1 μM, and as a negative control, HHFDPC without any treatment was used. After washing with PBS, proteins in the nucleus were isolated using a nuclear protein extraction kit (Thermo scientific, USA). After electrophoresis using a 10% SDS-PAGE gel, it was transferred to a PVDF membrane and blocked using 5% skim milk at room temperature for 30 minutes. […] After washing again with 0.1% PBS-T (0.1% Tween-20 in PBS) three times for 15 minutes each, β-catenin was detected by treatment with ECL solution (GE Healthcare, USA).

[5] = tested on: LEF-1; experiment: RT-PCR of LEF-1 expression in HHFDPC; conditions: peptide 10 nM, 100 nM, 1 μM, 24 hours, FIG. 4
Method: (§3) Furthermore, in order to determine whether the β-catenin moves to the nucleus and is s activated to affect cell proliferation and differentiation, whether the expression of LEF-1 and cyclin D1 (cyclin D1), which act as downstream factors, increases with β-catenin activation was confirmed through RT-PCR. Specifically, in the same manner as the previous Western blotting experiment, HHFDPC cells were cultured, treated with the peptides of the Preparation Example of the present invention at concentrations of 10 nM, 100 nM, and 1 μM, respectively, and cultured at 37° C. for 24 hours. After washing the cells with PBS, RNA was isolated by treating them with 300 […] of easy blue (intron, Korea). Then, cDNA was synthesized using a cDNA synthesis kit (enzynomics, Korea) by quantifying it with nano drop, and PCR was performed using primers for LEF-1 and cyclin D1 (base sequences of the primers are listed in Table 2) and PCR premix (enzynomics, Korea). Electrophoresis was performed on a 1.5% agarose gel, and then the mRNA of LEF-1 and cyclin D1 was detected using a band analysis system (Bio-Rad gel image system).

[6] = tested on: cyclin D1; experiment: RT-PCR of cyclin D1 expression in HHFDPC; conditions: peptide 10 nM, 100 nM, 1 μM, 24 hours, FIG. 4
Method: as §3

[7] = tested on: DKK-1 protein; experiment: Western blotting of DKK-1 protein in DHT-treated HHFDPC; conditions: HHFDPC with DHT 100 nM, peptide 10 nM, 1 μM, 24 hours, FIG. 5
Method: DKK-1 protein (dickkopf-related protein 1) is a hair loss-related protein known to be highly expressed in individuals with hair loss, especially male pattern hair loss, and its expression is known to be promoted by hormones such as DHT (Dihydrotestosterone). Accordingly, the expression of DKK-1 protein was induced by treating HHFDPC cells with DHT together with the peptide according to the Preparation Example of the present invention, and then the expression level of DKK-1 was measured through Western blotting to determine whether there was an effect of suppressing the expression of DKK-1 protein.
Specifically, HHFDPC as in [Experiment Example 1-1] was seeded in a 6-well culture plate at 4×10^5 cells/well and then cultured in MSC complete medium (mesenchymal stem cell complete media) for 24 hours. Next, the medium was replaced with serum free MSC complete medium and cultured again for 24 hours. In addition, the HHFDPC was treated with the peptide of SEQ ID NO: 1 prepared in Preparation Example at concentrations of 10 nM, 100 nM, and 1 μM, respectively, and at this time, DHT, an expression inducer of DKK-1 protein, was simultaneously treated at a concentration of 100 nM and then cultured at 37° C. for 24 hours. […] After washing again with 0.1% PBS-T (0.1% Tween-20 in PBS) three times for 15 minutes each, DKK-1 protein was detected by treatment with ECL solution (GE Healthcare, USA).

[8] = tested on: Ha3-II; experiment: RT-PCR of Ha3-II expression in HHORSC; conditions: peptide 10 nM, 100 nM, 1 μM, 72 hours, FIG. 6
Method: (§4) Using the peptide of the present invention consisting of the amino acid sequence of SEQ ID NO: 1 prepared according to Preparation Example above, it was confirmed whether it promotes the activity of outer root sheath cells, a type of cell that forms hair follicles.
(§5) Specifically, HHORSC (human hair outer root sheath cell, Sciencell, USA) was seeded in a 6-well culture plate at 4×10^5 cells/well and then cultured in MSC complete medium (mesenchymal stem cell complete media) for 24 hours. Next, the medium was replaced with serum free MSC complete medium and cultured again for 24 hours. Then, the HHORSC was treated with the peptide of Preparation Example consisting of amino acid sequence of SEQ ID NO: 1 at concentrations of 10 nM, 100 nM, and 1 μM, respectively, and cultured at 37° C. for 72 hours. […] Then, CDNA was synthesized using a cDNA synthesis kit (enzynomics, Korea) by quantification using nano drop, and PCR was performed using primers for Ha3-II, Keratin 5, Keratin 14, and Keratin 19 (the base sequences of each primer are shown in Table 3 below) and PCR premix (enzynomics, Korea). Electrophoresis was performed on a 1.5% agarose gel, and the mRNAs of Ha3-II, Keratin 5, Keratin 14, and Keratin 19 were detected using a band analysis system (Bio-Rad gel image system).

[9] = tested on: Keratin 5; experiment: RT-PCR of Keratin 5 expression in HHORSC; conditions: peptide 10 nM, 100 nM, 1 μM, 72 hours, FIG. 6
Method: as §4, §5

[10] = tested on: Keratin 14; experiment: RT-PCR of Keratin 14 expression in HHORSC; conditions: peptide 10 nM, 100 nM, 1 μM, 72 hours, FIG. 6
Method: as §4, §5

[11] = tested on: Keratin 19; experiment: RT-PCR of Keratin 19 expression in HHORSC; conditions: peptide 10 nM, 100 nM, 1 μM, 72 hours, FIG. 6
Method: as §4, §5

[12] = tested on: MSX2; experiment: RT-PCR of MSX2 expression in HHGMC; conditions: peptide 10 nM, 100 nM, 1 μM, 72 hours, FIG. 7
Method: as §4, with “promoted the expression of transcription factors related to” for “promotes”, “germinal matrix” for “outer root sheath”, “hair.” for “hair follicles.”
Specifically, HHGMC (human hair germinal matrix cell, Sciencell, USA) was seeded in a 6-well culture plate at 4×10^5 cells/well and then cultured in MSC complete medium (mesenchymal stem cell complete media) for 24 hours. Next, the medium was replaced with serum free MSC complete medium and cultured again for 24 hours. Then, the HHGMC was treated with the peptide of SEQ ID NO: 1 prepared in the Preparation Example at concentrations of 10 nM, 100 nM, and 1 μM, respectively, and cultured at 37° C. for 72 hours. As a positive control, EGF was treated at a concentration of 50 nM, and as a negative control, HHGMC without any treatment was used. […] Next, cDNA was synthesized using a cDNA synthesis kit (enzynomics, Korea) by quantification using nano drop, and PCR was performed using primers for MSX2 consisting of base sequences according to Table 4 below and PCR premix (enzynomics, Korea). Electrophoresis was performed on a 1.5% agarose gel, and MSX2 mRNA was detected using a band analysis system (Bio-Rad gel image system).

GCGLFVAAC [peptide of the present invention]
absorbance (cell proliferation) compared to the untreated control group ([1]; peptide 10 nM, 100 nM, 1 μM): the absorbance was measured to be higher
proliferation promotion effect compared to the positive control group (minoxidil 1 μM) ([1]; peptide 1 μM): showed a better proliferation promotion effect than the positive control group
phosphorylation of AKT (p-AKT) compared to the control group not treated with the peptide [2]: phosphorylation was found to be increased
phosphorylation of ERK (p-ERK) compared to the control group not treated with the peptide [3]: phosphorylation was found to be increased
β-catenin migration to the nucleus compared to the control group not treated with the peptide ([4]; HHFDPC nuclear protein, Western blotting): migration due to activation of β-catenin increased
concentration dependence of β-catenin activation ([4]; HHFDPC): further promoted depending on the concentration
LEF-1 mRNA amount compared to the control group without any treatment [5]: the amount of mRNA increased further
cyclin D1 mRNA amount compared to the control group without any treatment [6]: the amount of mRNA increased further
concentration dependence of the DKK-1 expression level [7]: decreased depending on the concentration
amount of DKK-1 protein compared to the negative control group (DHT only) ([7]; Western blotting): found to be reduced
Ha3-II mRNA amount compared to the control group without treatment [8]: the amount of mRNA increased further
Keratin 5 mRNA amount compared to the control group without treatment [9]: the amount of mRNA increased further
Keratin 14 mRNA amount compared to the control group without treatment [10]: the amount of mRNA increased further
Keratin 19 mRNA amount compared to the control group without treatment [11]: the amount of mRNA increased further
MSX2 mRNA amount compared to the untreated control group [12]: the amount of mRNA increased further
